Measured values: PubChem BioAssay (NCI)
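Five compound concentrations were applied to cells in 96-well plates for 48 hours; endpoints were derived by simple linear interpolation of the resulting dose-response curve. GI50 = concentration required for 50% inhibition of growth. The concentration for full growth arrest is given as TGI.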

How the values were obtained:
Assay in all cases: growth of human tumour cells (NCI), 48 h
[1] = test system: TK-10 renal
[2] = test system: IGROV1 ovarian
[3] = test system: HS 578T breast
[4] = test system: MDA-MB-435
[5] = test system: NCI-H522 lung
[6] = test system: PC-3 prostate
[7] = test system: RXF 393 renal
[8] = test system: LOX IMVI melanoma
[9] = test system: U251 CNS
[10] = test system: BT-549 breast

| SMILES | GI50 [1] [µM] | TGI [1] [µM] | GI50 [2] [µM] | TGI [2] [µM] | GI50 [3] [µM] | TGI [3] [µM] | GI50 [4] [µM] | TGI [4] [µM] | GI50 [5] [µM] | TGI [5] [µM] | GI50 [6] [µM] | TGI [6] [µM] | GI50 [7] [µM] | TGI [7] [µM] | GI50 [8] [µM] | TGI [8] [µM] | GI50 [9] [µM] | TGI [9] [µM] | GI50 [10] [µM] | TGI [10] [µM] |
| --- | --- | --- | --- | --- | --- | --- | --- | --- | --- | --- | --- | --- | --- | --- | --- | --- | --- | --- | --- | --- |
| O=S(=O)(O)ONC1=NCCN1 | > 100 | > 100 | > 100 | > 100 | 26.9 | > 100 | > 100 | > 100 | > 100 | > 100 | > 100 | > 100 | 66.7 | > 100 | 76.6 | > 100 | > 100 | > 100 | – | – |
| C=CCCC(=O)N1C=CC(=O)[C@H](O)[C@@H]1/C=C/c1ccccc1 | 21.5 | > 32.5 | 9.4 | > 32.5 | > 32.5 | > 32.5 | 10.7 | > 32.5 | > 32.5 | > 32.5 | – | – | 29.9 | > 32.5 | 6.28 | > 32.5 | 7.44 | > 32.5 | 11 | > 32.5 |
| O=C(CC(=O)c1ccccc1)c1ccccc1 | 20.5 | 93.7 | 19.9 | > 100 | 25.4 | > 100 | 29.3 | > 100 | 29.3 | > 100 | 25.9 | > 100 | 22 | 88 | – | – | 2.15 | 8.05 | 9.37 | 34.3 |
| O=c1c2c3c(sc2n2c(-c4ccc(Br)cc4)nnc2n1Cc1ccccc1)CCCC3 | 7.94 | 21.8 | 11.7 | 26.9 | 11.9 | 36.6 | 14.2 | 35.3 | – | – | 2.97 | 16.6 | – | – | 10.5 | 22.3 | 6.89 | 19.7 | 6.04 | 19.8 |
| COc1cc2c(cc1OC)-c1ncc3cc4c(cc3c1C2)OCO4 | 43.2 | > 100 | 25 | 59.6 | – | – | 63.4 | > 100 | 13.2 | 48.4 | > 100 | > 100 | 50.2 | > 100 | > 100 | > 100 | 41.4 | > 100 | – | – |
| C#Cc1cc2c(N)c(C(=O)c3cc(OC)c(OC)c(OC)c3)[nH]c2cc1OC | 17.8 | > 100 | 2.05 | 74.9 | 1.34 | > 100 | – | – | – | – | 0.45 | > 100 | – | – | 0.656 | > 100 | 0.691 | > 100 | – | – |
| COc1ccc(-c2c(N)n[nH]c2-c2cc(OC)c(OC)c(OC)c2)cc1 | – | – | 0.769 | 60.5 | 0.0782 | 0.593 | 0.0262 | 0.0907 | 0.223 | 24 | 0.11 | > 100 | 0.239 | 0.74 | 0.528 | > 100 | 0.276 | > 100 | 1.41 | > 29 |
| N#Cc1cccc(OCc2ccccc2COc2cccc(C#N)c2)c1 | 11.8 | 29.5 | > 100 | > 100 | 30.9 | 70.5 | 25.4 | > 100 | 98.1 | > 100 | 25.5 | > 100 | – | – | – | – | 19.4 | 43.4 | 36.7 | 93.3 |
| CCCCOc1ccc(/C=N/Nc2cc(C)nc3ccc(Cl)cc23)cc1 | 1.87 | 3.28 | 1.93 | 3.63 | – | – | 1.73 | 3.17 | 1.72 | 3.29 | 1.71 | 3.35 | 1.41 | 2.74 | 1.69 | 3.09 | 1.72 | 3.19 | 1.76 | 3.43 |
| O=C(Nc1cccc(C(F)(F)F)c1)c1cc(Br)cc(Br)c1O | – | 7.38 | – | > 10 | – | > 10 | – | > 10 | – | 9.82 | – | 7.28 | – | 9.12 | – | 4.95 | – | > 10 | – | – |
| Oc1ccc(Cl)cc1-c1cc(-c2ccc(F)cc2)n[nH]1 | 3.23 | 8.74 | 1.23 | 8.44 | 1.71 | 6.65 | 2.53 | 10.7 | – | – | 1.96 | 8.81 | 2.83 | 7.82 | 1.51 | 3.55 | 2.1 | 5 | 3.59 | 16.6 |
